According to ChEMBL document CHEMBL1130560, “Kinetic studies of the reaction of S-nitroso-L-cysteine with L-cysteine” (Bioorg Med Chem Lett, 1997):

Assay: First order rate constant for spontaneous decomposition
Type: ADME

Rate constant: 0.0000146 s⁻¹
SMILES: N[C@@H](CSN=O)C(=O)O
